Like-named read-outs stand apart in the source and are kept apart here. Marks after values point to notes of the source that are not given here. Non-standard residues stand in square brackets, D forms with d. Aib = CC(C)(N)C(=O)O Some results are limits rather than exact numbers.

Data set [1] relates to BV2 microglial cells. As for the experimental part: For suppression of inflammation profiling, each peptide analog was tested at a final concentration of 0.1, […], 1, 3, 5, 10 and 25 μM in an LPS induced BV2 microglial cell release of NO and/or TNFα. […] The modification was a biotin label on the apoE peptide (biotin-[…]-amide) which allows detection with ^125I-streptavidin (ISA, Amersham).
In overview, BV-2 cells are plated in 96 well plates in complete media and then the media is replaced the next day with serum free media or reduced serum (1%) media. […] Each concentration of peptide (standard initial concentrations are 0.1, 0.5, 1, 3, 10 and 25 μM) is added to at least 6 wells of cells (e.g. 6 wells get 0.1 μM peptide, 6 wells get 0.5 μM peptide, etc.) and data are averaged from all 6 wells. […] (2001). Cell viability is also measured with an MTT assay (Laskowitz et al. 2001).

Data set [2] has as its system mice with traumatic brain injury. As to the kind of experiment: Closed head injury model of traumatic brain injury (rotorod, Morris Water Maze). The note with it: for In vivo Therapeutic window time expanded?: mouse. For orientation: In the rotarod test animals must keep their balance on a rotating rod.
Description: C57Bl/6J male mice (The Jackson Laboratory, ME), 12-16 weeks of age and weighing 24-32 g, are used for all experiments. Anesthesia is first induced with isoflurane in 30% O2/balance N2. The trachea is intubated and the lungs mechanically ventilated with 1.6% isoflurane in 30% O2/balance N2. Temperature is monitored with a rectal probe and maintained at 36.5° C. with a heat lamp. The right internal jugular vein is cannulated with silicone catheter. […] Intubated animals are then placed prone on a molded acrylic cast (FIG. 6A). […] The scalp is incised and the skull exposed. A concave 3 mm metallic disc is secured to the skull surface (with the concave surface in juxtaposition to the skull) by an adhesive. […] The disc is placed directly midline just caudal to bregma (FIG. 6B). […] The mice are positioned in a stereotactic frame. Although the stereotactactic frame helps to stabilize the animal and exactly calibrate the vertical displacement on impact (3 mm), ear bars are not used due to a much higher rate of skull fracture (or brainstem injury if the head rotates around the axis of the ear bars during impact). The piston is discharged at 6.8±0.2 m/s so as to impact the skull in the acrylic mold to move a maximum of approximately 3 mm (FIG. 6C). Inspired isoflurane is decreased to 0.7% immediately after impact. The scalp was infiltrated with lidocaine and closed with suture. Ophthalmic ointment was applied to the eyes for protection. The incidence of skull fracture is low (approximately 10%), as the metal disk helps to diffuse the impact, and the absence of ear bar fixation allows for displacement of the entire head. Mice were excluded if a depressed skull fracture was observed (incidence of approximately 10%). The animals are allowed to recover spontaneous ventilation then extubated. […] In these mice, arterial blood pressure, blood gas and glucose measurement at baseline, immediately after injury, and 15 minutes after injury are monitored during the recovery period.
Briefly, baseline performance on rotorod is established before the mice are intubated, the skin over the scalp reflected and a controlled cortical impact from a pneumatic impactor given on the midline. The skin is closed with surgical clips and the animals are constantly monitored until awake from anesthesia and then hourly for the next 4 hours. […] Performance on rotorod is tested at 24 hours post impaction and then every day for 5 days and data is presented as described. Groups of 12 mice are used for each compound at 0.5×MTD. […] Novel peptides and non-peptide analogs are also given by tail vein injection.
Daily Rotarod (RR) testing was used to assess short term motor and cerebellar deficit following head injury (Hamm et al., 1994). Mice were held by their tails and placed on the RR facing the wall by using gentle swinging motion while running in a constant speed mode.
Data set [3] concerns BV2 murine microglial cells. As for the experimental part: For Applicants preliminary work, the two most common PTDs, TAT and penetratin, were used.
Cell Culture: BV-2, a well-characterized murine microglial cell line (Bochinni, 1992), is cultured in high glucose content DMEM supplemented with 1% penicillin/streptomycin, 10% fetal calf serum, 1% nonessential amino acids, and 1% sodium pyruvate. Cells are grown to confluency; trypsinized; spun down; resuspended in serum-free OptiMEM containing 1% N2 supplement, 1% penicillin/streptomycin, 1% nonessential amino acids, and 1% sodium pyruvate; and plated at a concentration of 20,000 cells/well to remove any nonadherent cells and serum.
Supernatant is collected 24 and/or 48 h after LPS stimulation and assayed for nitrite.
Quantification of Nitric Oxide (NO): Accumulation of nitrite (stable end product of NO production) in the medium is measured by colometric Griess reagent system (Promega); the absorbance is determined at 540 nm.
Cell Viability Assay: Cell viability is measured using a nonradioactive cell viability assay (cell titer 96 AQ, Promega). The assay measures the bioreduction of MTS (3-(4,5-dimethylthiazole-2-)-5-(3-carboxymethoxyphenyl)-2-(4-sulfophenyl)-2H-tetrazolium by viable cells into formazan. The absorbance of the calorimetric assay is measured at λ 490 nm. Viability is assessed and used to normalize the nitrite data.

In data set [4] the test system is peritoneal macrophages. In words: Peritoneal macrophage production of NO, TNFα and IL-6 induced by MOG or LPS/IFN-γ. It is filed as cell-based, mouse. As for the experimental part: For this purpose, three mice with clinical scores of 0 and three with clinical scores of 4 at 30 dpi (day post-immunization) were used for preparation of peritoneal macrophage cultures. Macrophages were collected after peritoneal lavage with 3 ml heparin (10 U/ml)-containing PBS and then seeded to 96-well microplates at a density of 1×10^5 cells/well in Dulbecco's MEM containing 10% fetal bovine serum, 2 mM L-glutamine serum, 1% HEPES and 100 U/ml penicillin and 100 μg/ml streptomycin, 37° C. in a humidified incubator with 5% CO2. 24 h later, the serum-containing medium was removed and cells were washed once with serum-free medium. To examine the differentiated response of macrophage to immune stimulators, macrophages obtained from mice with clinical scores of 0 or 4 were exposed to serial concentrations of IFN-γ/LPS or MOG35-55 peptide. […] Media were collected at 45 h or 72 h, and analyzed by ELISA for […] and IL-6 or for nitric oxide (NO) as detailed below.
As the stable end product of nitric oxide release, nitrite levels in conditioned media were determined by injecting 50 μl media sample into a Sievers 280 NOA analyzer (Boulder, Colo., USA). Total protein (μg/well) was measured using the BCA method (Pierce, Rockford, Ill., USA) according to manufacturer's instructions with BSA as standard. BCA values were measured using a Molecular Devices Thermomax Microplate Reader (Menlo Park, Calif., USA) at OD562. Nitric oxide levels ere expressed as μM NO2—/mg protein.
For cytokine assays, supernatants were collected 45 h after […]/LPS or MOG treatments and quantitative ELISAs using selected pairs of monoclonal antibodies (as recommended by the manufacturer Biosource) were performed to quantify the cytokines, TNF-α and IL-6. For TNF-α ELISA, 96-well ELISA plates were pre-coated with rabbit anti-mouse polyclonal to TNF-α as capture antibodies for 18 h at 2-8° C. and then blocked for 2 h at room temperature. The wells were incubated with samples or mouse TNF-α standards. Following incubation for 2 h at room temperature, the wells were washed, after which hamster anti-mouse TNF-α biotinylated secondary antibody and horseradish peroxidase conjugate were added. Tetramethylbenzidine (TMB) solution was then added, and peroxidase-catalyzed color change was stopped by acidification with 2 NH2SO4. The plates were scanned at wavelength 450 nm and the absorbance were measured. The results are expressed as the mean concentration (pg/ml) ±SEM.
For IL-6 ELISA, rat anti-mouse monoclonal to IL-6 was used as capture antibody, and biotinylated rat anti-mouse monoclonal to IL-6 as detection antibody. The rest of procedure is identical to that of TNF-α ELISA.

In data set [5] the test system is mice infected with C. rodentium. In words: C. rodentium colitis. It is filed as in vivo. Conditions: for Colon wt (% Total Body wt) / Histology Score / Body wt (% Total Body wt): WT mice, 10 days; for Body wt (% Total Body wt): 0.1% BEC or 2.5% DFMO. An excerpt:
C. rodentium colitis: Of the two existing mouse models (Gobert A P et al., 2004; Cheng Y. et al., 2003), the C. rodentium model was selected because it produces a Th1-predominant mucosal inflammation that has histologic changes similar to human IBD (Higgins L M et al., 1999). In this model, mice are infected by oral gavage with C. rodentium (Gobert A P et al., 2004), a gram negative pathogenic bacterium that is the rodent equivalent of enteropathogenic E. coli that causes diarrhea in humans.
Since arginase I and iNOS were both abundantly expressed in the colitis tissues and L-Arg was completely metabolized, we investigated the effect of administration of 1% L-Arg in the drinking water. In wild type (WT) mice, C. rodentium colitis induced a high level of mortality that began on day 9 post-infection (FIG. 31A). In WT animals treated with L-Arg, mortality was inhibited by 42% and 62% compared to mice receiving water alone, after 12 and 14 days of infection, respectively (FIG. 31A). By Cox regression analysis, WT mice treated with L-Arg had only a 31% hazard of death compared with mice receiving water alone (p<0.0009). In iNOS^−/− mice, no deaths were observed, with or without L-Arg (FIG. 31A). […] Note that the weight loss of WT mice is underestimated, since only the weights of animals still alive could be included. […] There was an additive effect of iNOS deletion and L-Arg administration, with a 68% decrease in colon weight. Neither iNOS deletion nor L-Arg treatment affected colon weight in uninfected control mice. Importantly, these changes were closely paralleled by changes in colon histology (FIG. 32).
In uninfected control mice, BEC or DFMO had no effect (Table I). […] In fact, experiments had to be terminated early at 10 days post-infection, because of deaths and severe disease at this point.

For “ApoE 135-149: truncated apoE peptide, residues 135-149 (VRLASHLRKLRKRLL; UniProt P02649 153-167, looked up, fragment)”, the “Fold less potent than apoE 130-150” value in data set [1] was 5 fold. Still for that read-out and setting: to “apoE 134-149: truncated apoE peptide, residues 134-149 (RVRLASHLRKLRKRLL; UniProt P02649 152-167, looked up, fragment)” belongs 2.5 fold.

In the case of “ApoE 139-149: truncated apoE peptide, residues 139-149 (SHLRKLRKRLL; UniProt P02649 157-167, looked up, fragment)”, in data set [1], the “Activity at 25 μM in suppression of NO / TNFα release” value (“Activity … of NO / TNFα release” below) is listed as “failed to show activity”. Take “Ac-ASHLRKL-Aib-KRLL-NH2 (Ac-ASHLRKL[Aib]KRLL-NH2; SMILES CC(=O)N[C@@H](C)C(=O)N[C@@H](CO)C(=O)N[C@@H](Cc1c[nH]cn1)C(=O)N[C@@H](CC(C)C)C(=O)N[C@@H](CCCNC(=N)N)C(=O)N[C@@H](CCCCN)C(=O)N[C@@H](CC(C)C)C(=O)NC(C)(C)C(=O)N[C@@H](CCCCN)C(=O)N[C@@H](CCCNC(=N)N)C(=O)N[C@@H](CC(C)C)C(=O)N[C@@H](CC(C)C)C(N)=O) [COG432]”: the “Rotorod performance (100% is performance prior to TBI)” value in data set [2] (4 mg/kg, started 2 hours post TBI, day 5 post TBI) is reported as “about 80%”. In the case of “apoE 137-149: truncated apoE peptide, residues 137-149 (LASHLRKLRKRLL; UniProt P02649 155-167, looked up, fragment)”, in data set [1], the “Activity … of NO / TNFα release” value is “failed to show activity”. As to “Ac-RRLSYSRRRFLRVRLASHLRKLRKRLL-NH2 (N-terminus and C-terminus assumed) [SynB3]”, the IC50 in data set [3] is 5.9 µM; in data set [3] (read-out: IC50 TNFα, in vitro) it was 5.1 µM. Also, in data set [2] (2 hours post traumatic brain injury), the “Rotorod latency, single tail vein injection 2 hours post TBI” value was “significantly improves outcome from head trauma”. Moreover, the “In vivo Therapeutic window time expanded?” value in data set [2] is recorded as “Yes; tested at 4 X”. For the compound “apoE 130-148: truncated apoE peptide, residues 130-148 (TEELRVRLASHLRKLRKRL; UniProt P02649 148-166, looked up, fragment)”, the “Activity … of NO / TNFα release” value in data set [1] was “failed to show activity”. For Ac-ASHLRKLRKRLL-NH2 [apoE 138-149], the “Activity … of NO / TNFα release” value in data set [1] was “failed to show activity”.

As for “Ac-RRRRRRRRLRVRLASHLRKLRKRLL-NH2 (N-terminus and C-terminus assumed) [polyArg (8R)]”, the IC50 in data set [3] stood at 4 µM; in data set [3] (read-out: IC50 TNFα, in vitro) it was 4.2 µM. Take “RQIKIWFQNRRMKWKK (Protein transduction domain conjugate Antp) [antennapedia prefix peptide, portion of antennapedia that serves as a prefix to COG133, reference compound]”: the “Inhibition of cytokine production induced by MOG or LPS/IFN-γ” value in data set [4] is “showed no activity”.

As for LRVRLASHLRKLRKRLA [L149A], the EC50 in data set [1] (read-out: Structure activity in the COG133 peptide from single amino acid replacements, binding and/or suppression of NO or TNFα release, compared with 3.5 μM EC50 of COG133) is above 3.5 µM.

Turning to “apoE 136-149: truncated apoE peptide, residues 136-149 (RLASHLRKLRKRLL; UniProt P02649 154-167, looked up, fragment)”, in data set [1], the “Fold less potent than apoE 130-150” value stood at 8 fold.

With `CSCC[C@H](NC(=O)[C@H](CCCNC(=N)N)NC(=O)[C@H](CCCNC(=N)N)NC(C)=O)C(=O)N[C@@H](CCCCN)C(=O)N[C@@H](Cc1c[nH]c2ccccc12)C(=O)N[C@@H](CCCCN)C(=O)N[C@@H](CCCCN)C(=O)N[C@@H](CC(C)C)C(=O)N[C@@H](CCCNC(=N)N)C(=O)N[C@H](C(=O)N[C@@H](CCCNC(=N)N)C(=O)N[C@@H](CC(C)C)C(=O)N[C@@H](C)C(=O)N[C@@H](CO)C(=O)N[C@@H](Cc1c[nH]cn1)C(=O)N[C@@H](CC(C)C)C(=O)N[C@@H](CCCNC(=N)N)C(=O)N[C@@H](CCCCN)C(=O)N[C@@H](CC(C)C)C(=O)N[C@@H](CCCNC(=N)N)C(=O)N[C@@H](CCCCN)C(=O)N[C@@H](CCCNC(=N)N)C(=O)N[C@@H](CC(C)C)C(=O)N[C@@H](CC(C)C)C(N)=O)C(C)C` [antp (52-58)], inhibition in data set [3] was half-maximal at 11 µM (IC50).

Take “apoE 130-147: truncated apoE peptide, residues 130-147 (TEELRVRLASHLRKLRKR; UniProt P02649 148-165, looked up, fragment)”: in data set [1], the “Activity … of NO / TNFα release” value is on record as “failed to show activity”. On to `NCCCC(N)(C(=O)O)C(F)F` (centres unmarked) [DFMO, -difluoromethylornithine], for which, in data set [5] (C. rodentium), the “Colon wt (% Total Body wt)” value is 1.35 ± 0.12^b,d % Total Body wt, the “Histology Score” value is 9.54 ± 0.68^b,d and the “Body wt (% Total Body wt)” value is listed as 78.6 ± 0.4^b,c % Total Body wt. In data set [5] (PBS (uninfected)), the “Colon wt (% Total Body wt)” value is recorded as 0.61 ± 0.07 % Total Body wt, the “Histology Score” value came to 0.75 ± 0.25 and the “Body wt (% Total Body wt)” value is listed as 101.3 ± 2.6 % Total Body wt. The “Survival of C. rodentium-infected mice” value in data set [5] (in the drinking water) is listed as “significant loss of survival”. The “Effect in uninfected control mice” value in data set [5] (mouse, in vivo) is “had no effect”.

For “Ac-RGGRLAYLRRRWAVLGRLRVRLASHLRKLRKRLL-NH2 (N-terminus and C-terminus assumed) [SynB5]”, the IC50 was found to be 3.2 µM in data set [3] and 4.2 µM in data set [3] (read-out: IC50 TNFα, in vitro). Moreover, in data set [2], the “In vivo Therapeutic window time expanded?” value is “No; Tested at 6 X”.

What is called IC50 is the midpoint of a concentration-inhibition curve.

The values are drawn from US20090042783A1, “APO E ANALOGS AND METHODS FOR THEIR USE” (priority 2004, published 2009).
